From ChEMBL document CHEMBL4325862, “Identification of novel quinazoline derivatives as potent antiplasmodial agents” (Eur J Med Chem, 2019)
pEC50, pIC50: −log10 of the molar value. Activity calls are given as the source filed them. No cut-off for these calls is given here.

How the values were obtained:
[1] = tested on: Plasmodium falciparum; test: Antiplasmodial activity against asynchronous form of Plasmodium falciparum 3D7 infected in human erythrocytes assessed as parasite growth inhibition at 10 uM after 48 hrs by SYBR green1 staining based flow cytometry relative to control; type: functional; conditions: 3D7, 48 h
[2] = biological target: DNA (cytosine-5)-methyltransferase 1 (Homo sapiens, UniProt P26358); test: Inhibition of recombinant human DNMT1 using biotinylated DNA duplex as substrate measured after 2 hrs in presence of Adomet/[methyl-3H]Adomet by topcount method
[3] = tested on: Plasmodium falciparum; test: Antiplasmodial activity against asynchronous form of Plasmodium falciparum 3D7 infected in human erythrocytes assessed as parasite growth inhibition after 48 hrs by SYBR green1 staining based flow cytometry; type: functional, organism-based; conditions: 3D7, 48 h
[4] = biological target: T1, Histone-lysine N-methyltransferase EHMT2 (Homo sapiens, UniProt Q96KQ7); test: Inhibition of recombinant human N-terminal GST-fused G9a (786 to 1210 residues) expressed in Escherichia coli using biotinylated H3 (1 to 21 residues) as substrate measured after 1 hr in presence of 3H-Adomet by filter binding assay
T1 sequence (Q96KQ7 whole entry): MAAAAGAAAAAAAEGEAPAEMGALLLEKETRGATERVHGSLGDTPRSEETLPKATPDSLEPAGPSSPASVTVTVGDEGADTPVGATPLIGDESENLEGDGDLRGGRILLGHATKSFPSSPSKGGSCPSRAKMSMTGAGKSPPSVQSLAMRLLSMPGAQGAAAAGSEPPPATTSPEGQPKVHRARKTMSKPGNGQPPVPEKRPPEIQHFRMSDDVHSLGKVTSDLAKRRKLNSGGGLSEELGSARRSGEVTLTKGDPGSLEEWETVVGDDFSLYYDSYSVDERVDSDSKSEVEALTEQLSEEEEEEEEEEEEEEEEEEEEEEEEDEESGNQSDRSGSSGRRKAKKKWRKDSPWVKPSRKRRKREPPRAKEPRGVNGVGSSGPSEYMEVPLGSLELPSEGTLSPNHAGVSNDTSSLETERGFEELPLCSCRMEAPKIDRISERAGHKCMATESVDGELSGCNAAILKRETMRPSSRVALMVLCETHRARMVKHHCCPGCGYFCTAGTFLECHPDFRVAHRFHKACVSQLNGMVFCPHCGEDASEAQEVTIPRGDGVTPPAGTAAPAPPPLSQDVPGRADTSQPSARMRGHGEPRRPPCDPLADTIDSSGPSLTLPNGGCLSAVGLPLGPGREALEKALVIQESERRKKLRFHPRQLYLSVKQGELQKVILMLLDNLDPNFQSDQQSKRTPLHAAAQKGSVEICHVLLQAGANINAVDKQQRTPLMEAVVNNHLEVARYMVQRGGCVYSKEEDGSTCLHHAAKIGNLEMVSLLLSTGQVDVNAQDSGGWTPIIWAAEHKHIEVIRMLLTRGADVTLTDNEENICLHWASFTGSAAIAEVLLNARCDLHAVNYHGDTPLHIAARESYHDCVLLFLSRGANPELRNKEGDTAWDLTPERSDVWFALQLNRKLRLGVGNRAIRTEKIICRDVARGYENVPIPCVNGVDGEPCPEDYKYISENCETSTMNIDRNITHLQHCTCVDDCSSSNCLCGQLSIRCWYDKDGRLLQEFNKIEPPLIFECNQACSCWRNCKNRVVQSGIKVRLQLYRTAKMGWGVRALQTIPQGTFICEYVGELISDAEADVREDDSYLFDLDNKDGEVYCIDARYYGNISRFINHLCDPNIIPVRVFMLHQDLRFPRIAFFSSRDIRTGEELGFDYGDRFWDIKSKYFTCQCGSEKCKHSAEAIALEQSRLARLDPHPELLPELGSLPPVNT

[5] = biological target: T2, DNA (cytosine-5)-methyltransferase 3A (Homo sapiens, UniProt Q9Y6K1); test: Inhibition of recombinant human DNMT3a C-terminal catalytic domain (623 to 908 residues) using 5'-biotinylated/3'-FAM-oligonucleotide as substrate measured after 1 hr in presence of Adomet by fluorescence assay
[6] = tested on: Plasmodium berghei; test: Antimalarial activity against Plasmodium berghei ANKA infected in BALB/c mouse assessed as reduction in parasitemia at 10 mg/kg, po administered once daily for 4 days by Giemsa-staining based microscopic analysis; type: functional, organism-based
[7] = Selectivity index, ratio of IC50 for mouse spleen cells to IC50 for asynchronous form of Plasmodium falciparum 3D7 infected in human erythrocytes; type: toxicity, cell-based; conditions: read-out: Ratio IC50
[8] = Cytotoxicity against mouse spleen cells; type: cell-based
[9] = tested on: HFF; test: Cytotoxicity against HFF; type: cell-based; conditions: Homo sapiens
[10] = tested on: Plasmodium falciparum; test: Antiplasmodial activity against asynchronous form of Plasmodium falciparum W2 infected in human erythrocytes assessed as parasite growth inhibition after 48 hrs by SYBR green1 staining based flow cytometry; type: functional, organism-based; conditions: W2, 48 h
[11] = tested on: Plasmodium falciparum; test: Antiplasmodial activity against Plasmodium falciparum Dd2 infected in human erythrocytes assessed as reduction in [3H]-hypoxanthine incorporation measured after 48 hrs by microbeta liquid scintillation counting method; type: functional, organism-based
[12] = biological target: T2, DNA (cytosine-5)-methyltransferase 3A; test: Inhibition of recombinant human DNMT3a C-terminal catalytic domain (623 to 908 residues) at 10 uM using 5'-biotinylated/3'-FAM-oligonucleotide as substrate measured after 1 hr in presence of Adomet by fluorescence assay relative to control

T2 sequence (Q9Y6K1 whole entry, looked up, the tested form may be a part): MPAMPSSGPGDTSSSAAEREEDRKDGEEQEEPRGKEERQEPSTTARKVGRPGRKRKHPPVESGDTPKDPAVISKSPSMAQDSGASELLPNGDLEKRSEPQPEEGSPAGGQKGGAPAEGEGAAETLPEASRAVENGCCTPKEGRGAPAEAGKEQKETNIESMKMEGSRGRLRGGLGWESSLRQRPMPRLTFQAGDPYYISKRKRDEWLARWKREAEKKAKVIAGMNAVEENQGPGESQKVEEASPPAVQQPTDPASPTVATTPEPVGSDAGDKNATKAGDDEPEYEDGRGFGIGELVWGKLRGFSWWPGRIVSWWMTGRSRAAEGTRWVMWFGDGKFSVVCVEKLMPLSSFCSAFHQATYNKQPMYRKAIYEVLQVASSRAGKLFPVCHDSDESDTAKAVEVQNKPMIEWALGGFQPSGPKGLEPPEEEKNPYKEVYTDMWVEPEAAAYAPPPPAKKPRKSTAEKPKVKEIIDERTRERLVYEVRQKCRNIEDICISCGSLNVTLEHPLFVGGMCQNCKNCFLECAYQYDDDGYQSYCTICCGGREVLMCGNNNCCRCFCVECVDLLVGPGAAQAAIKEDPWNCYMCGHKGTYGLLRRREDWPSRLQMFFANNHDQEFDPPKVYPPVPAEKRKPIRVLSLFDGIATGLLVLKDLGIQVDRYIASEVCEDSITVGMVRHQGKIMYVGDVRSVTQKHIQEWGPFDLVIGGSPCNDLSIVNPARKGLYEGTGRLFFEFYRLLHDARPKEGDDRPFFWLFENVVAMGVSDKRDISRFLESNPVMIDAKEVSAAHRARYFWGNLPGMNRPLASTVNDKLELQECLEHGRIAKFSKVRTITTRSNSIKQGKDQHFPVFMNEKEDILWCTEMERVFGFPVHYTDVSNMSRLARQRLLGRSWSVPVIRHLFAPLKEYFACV
Sequence of DNA (cytosine-5)-methyltransferase 1 (P26358 whole entry): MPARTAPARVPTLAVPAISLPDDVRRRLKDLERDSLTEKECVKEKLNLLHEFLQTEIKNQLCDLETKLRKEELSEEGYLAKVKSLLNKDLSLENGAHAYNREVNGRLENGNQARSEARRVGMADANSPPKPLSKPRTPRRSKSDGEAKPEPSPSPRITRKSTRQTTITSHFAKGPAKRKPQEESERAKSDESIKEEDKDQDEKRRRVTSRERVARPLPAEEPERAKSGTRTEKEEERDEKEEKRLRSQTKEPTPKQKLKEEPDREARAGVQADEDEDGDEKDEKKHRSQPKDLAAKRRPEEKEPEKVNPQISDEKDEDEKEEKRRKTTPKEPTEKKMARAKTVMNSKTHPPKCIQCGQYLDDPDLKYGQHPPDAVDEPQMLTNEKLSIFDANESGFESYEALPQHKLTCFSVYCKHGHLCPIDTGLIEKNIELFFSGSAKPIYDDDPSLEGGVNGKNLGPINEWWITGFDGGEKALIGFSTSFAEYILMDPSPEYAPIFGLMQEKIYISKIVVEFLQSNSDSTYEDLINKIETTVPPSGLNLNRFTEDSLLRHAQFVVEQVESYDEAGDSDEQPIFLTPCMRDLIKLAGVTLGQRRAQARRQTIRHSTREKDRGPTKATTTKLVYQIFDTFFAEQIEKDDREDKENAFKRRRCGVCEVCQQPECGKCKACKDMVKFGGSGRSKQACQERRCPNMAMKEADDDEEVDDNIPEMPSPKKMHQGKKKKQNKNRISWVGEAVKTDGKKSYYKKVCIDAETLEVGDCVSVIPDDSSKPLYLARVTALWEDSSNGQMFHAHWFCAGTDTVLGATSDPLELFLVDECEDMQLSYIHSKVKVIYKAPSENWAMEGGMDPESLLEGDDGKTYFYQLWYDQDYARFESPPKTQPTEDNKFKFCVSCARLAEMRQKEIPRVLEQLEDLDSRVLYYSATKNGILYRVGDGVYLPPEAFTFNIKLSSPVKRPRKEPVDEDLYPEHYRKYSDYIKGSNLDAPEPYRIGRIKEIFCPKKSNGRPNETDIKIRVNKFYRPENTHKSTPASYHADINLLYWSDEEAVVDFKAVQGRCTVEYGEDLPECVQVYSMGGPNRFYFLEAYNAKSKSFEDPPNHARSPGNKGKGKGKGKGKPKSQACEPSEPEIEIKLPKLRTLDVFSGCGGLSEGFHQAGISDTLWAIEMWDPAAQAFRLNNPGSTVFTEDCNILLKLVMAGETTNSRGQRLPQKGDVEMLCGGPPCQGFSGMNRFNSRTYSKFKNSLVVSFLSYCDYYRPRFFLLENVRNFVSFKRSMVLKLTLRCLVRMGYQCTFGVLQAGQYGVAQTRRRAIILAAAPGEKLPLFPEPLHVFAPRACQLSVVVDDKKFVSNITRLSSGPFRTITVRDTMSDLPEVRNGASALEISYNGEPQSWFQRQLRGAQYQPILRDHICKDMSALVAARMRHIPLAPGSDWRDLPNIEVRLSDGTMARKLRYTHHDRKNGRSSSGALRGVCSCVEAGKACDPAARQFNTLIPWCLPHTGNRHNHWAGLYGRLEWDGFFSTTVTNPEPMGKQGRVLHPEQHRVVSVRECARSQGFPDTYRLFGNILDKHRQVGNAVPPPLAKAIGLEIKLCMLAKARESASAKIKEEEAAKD

pEC50 [2] | pEC50 [4] | pEC50 [5] | pIC50 [11] | inhibition [12] | SMILES | inhibition at 10 µM [1] | pIC50 [3] | Activity [6] | selectivity ratio [7] | pIC50 [8] | pIC50 [9] | pIC50 [10]
< 4.00 | 4.29 | 5.32 | – | – | COc1ccc(CCN2CCC(Nc3nc(NCc4ccc(F)cc4)nc4ccccc34)CC2)cc1 | 100% | 7.47 | – | – | – | – | –
– | – | – | – | – | CCN(CC)CCCC(C)Nc1ccnc2cc(Cl)ccc12 (centres undefined) | – | – | Active | – | – | – | –
< 4.00 | 4.50 | 5.28 | 8.21 | – | COc1ccc(CCN2CCC(Nc3nc(NCc4ccc(F)cc4)nc4cc(OC)c(OC)cc34)CC2)cc1 | 100% | 7.74 | – | 44 | 6.10 | 5.49 | 7.59
– | – | – | – | 15% | COc1cc2c(NCCNc3cccc4ccccc34)nc(N3CCN(c4ccccc4)CC3)nc2cc1OCc1ccccc1 | 99.6% | 7.25 | – | – | – | – | –
